What was measured:
ICR male mice [1] = assay: Anti-reserpine action (antagonistic action against hypothermia); assay type: in vivo; details: Mus musculus, 2 h; SC; mice given reserpine 5 mg/kg s.c. 3 or 3.5 hours before; estimated from regression line; read-out: Concentration of test compound necessary for raising body temperature by 1°C on the average for 120 minutes
Procedure: Anti-reserpine action (Antagonistic action against hypothermia)
ICR male mice weighing 35 - 40 g were subcutaneously administered with reserpine at the dose of 5 mg/kg. About 2 hours later, each of the mice was held by a mouse-holder, and a body temperature sensor was intrarectally inserted. Thereafter, the body temperature was automatically measured every 10 minutes. The test compound dissolved in saline was subcutaneously administered 3 or 3.5 hours after administration of reserpine. After the administration of the test compound, the body temperature was measured every 10 minutes over the period of 120 minutes. The area below the body temperature line during the period was calculated, from which the regression line was estimated based upon least square method, and estimated was the amount of the test compound necessary for raising the body temperature by 1°C on the average for 120 minutes from that just before the administration of the test compound (Table 1).

ICR male mice [2] = assay: Anti-chlorpromazine action (locomotor stimulant action); assay type: in vivo; details: Mus musculus, 2 h; SC; mice given chlorpromazine HCl 5 mg/kg s.c. one hour before; estimated from regression line; read-out: Concentration of test compound necessary for inducing 3000 count of automatism quantity in 2 hours
Procedure: Anti-chlorpromazine action (Locomotor stimulant action)
ICR male mice weighing 35 - 40 g (four animals per group) were subcutaneously administered with chlorpromazine HCl at the dose of 5 mg/kg and immediately set in the automatic locomotor-measuring apparatus (AUTOMEX). One hour later, the test compound dissolved in saline was subcutaneously administered, and the locomotor activity was measured every 15 minutes for 120 minutes. The total locomotor activity during the period of 120 minutes was calculated and the regression line was estimated based on the method of least squares, from which the amount of the test compound necessary for inducing 3000 locomotor-count was estimated (Table 2).

| Structure (SMILES) | ED (1 C rise of body temperature) (ICR male mice [1]) [mg/kg] | ED (3000 locomotor counts) (ICR male mice [2]) [mg/kg] |
| --- | --- | --- |
| CC(C)C[C@H](NC(=O)[C@H]1NC(=O)C[C@H]1C)C(=O)N1CCC[C@H]1C(N)=O [Compound 1A, N-(cis-3-Methylpyroglutamyl)-L-leucyl-L-prolinamide] | 0.18 | 2.63 |
| CCCC[C@H](NC(=O)[C@H]1NC(=O)C[C@H]1C)C(=O)N1CCC[C@H]1C(N)=O [Compound 5A, N-(cis-3-Methylpyroglutamyl)-L-norleucyl-L-prolinamide] | 0.33 | 16.3 |
| CCC[C@H](NC(=O)[C@H]1NC(=O)C[C@H]1C)C(=O)N1CCC[C@H]1C(N)=O [Compound 3A, N-(cis-3-Methylpyroglutamyl)-L-norvalyl-L-prolinamide] | 0.91 |  |
| CSCC[C@H](NC(=O)[C@H]1NC(=O)C[C@H]1C)C(=O)N1CCC[C@H]1C(N)=O [Compound 2A, N-(cis-3-Methylpyroglutamyl)-L-methionyl-L-prolinamide] | 0.48 | 1.64 |
| NC(=O)[C@@H]1CCCN1C(=O)[C@H](Cc1c[nH]cn1)NC(=O)[C@@H]1CCC(=O)N1 [TRH, L-pyroglutamyl-L-histidyl-L-prolinamide, reference compound] |  | 6.82 |

— EP0473993B1, “Novel peptide derivatives and their pharmaceutical use” (Japan Tobacco Inc., priority 1990, dated 1992)
